Measured values as given in PubChem BioAssay AID858 (Vanderbilt High Throughput Screening Facility, 2007).
Calls of active or inactive are those of the source.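 The calls were made as follows: active = at least two of three replicate dose series yielding a converging curve fit, whether well or thinly supported; inactive = the rest.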

Biological target: D(1A) dopamine receptor (Homo sapiens) (UniProt P21728)
Experiment: D1 receptor modulation with EC30 dopamine, dose response, D1 allosteric modulator project, cell-based, CRE-luciferase, HEK293 (AID 858);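 also: HEK 293 cells bearing human D1 receptor stimulated by dopamine at its EC30; luciferase light from a cAMP response element reporter gene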

D(1A) dopamine receptor (Homo sapiens), sequence (P21728 whole entry, looked up): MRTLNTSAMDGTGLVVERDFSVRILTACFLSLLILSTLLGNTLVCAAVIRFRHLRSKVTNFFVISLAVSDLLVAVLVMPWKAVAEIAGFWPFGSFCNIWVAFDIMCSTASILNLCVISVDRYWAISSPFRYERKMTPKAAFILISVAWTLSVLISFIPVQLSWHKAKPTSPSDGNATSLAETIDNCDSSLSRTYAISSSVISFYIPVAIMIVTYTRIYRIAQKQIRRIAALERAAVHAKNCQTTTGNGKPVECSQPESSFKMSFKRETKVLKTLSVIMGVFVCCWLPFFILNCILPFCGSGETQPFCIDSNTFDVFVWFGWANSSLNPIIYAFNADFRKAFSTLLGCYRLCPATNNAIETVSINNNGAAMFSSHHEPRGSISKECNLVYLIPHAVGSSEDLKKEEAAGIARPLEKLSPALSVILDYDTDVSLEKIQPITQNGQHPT

Compound	outcome
COC(=O)c1ccc(OCCn2cnc3ccccc3c2=O)cc1	inactive
Cc1noc(C)c1CSc1ncnc2ccccc12	inactive
